From US12187723B2 (BRISTOL-MYERS SQUIBB COMPANY, priority 2019, dated 2025) come the findings set out here.

Structures are written as SMILES. Counter-ions that a name gives are not always drawn.

This test concerns the target T1, human TLR7 (Homo sapiens, UniProt Q9NYK1).
T1 construct: host or cells: HEK-Blue cells
T1 sequence (Q9NYK1 27-1049): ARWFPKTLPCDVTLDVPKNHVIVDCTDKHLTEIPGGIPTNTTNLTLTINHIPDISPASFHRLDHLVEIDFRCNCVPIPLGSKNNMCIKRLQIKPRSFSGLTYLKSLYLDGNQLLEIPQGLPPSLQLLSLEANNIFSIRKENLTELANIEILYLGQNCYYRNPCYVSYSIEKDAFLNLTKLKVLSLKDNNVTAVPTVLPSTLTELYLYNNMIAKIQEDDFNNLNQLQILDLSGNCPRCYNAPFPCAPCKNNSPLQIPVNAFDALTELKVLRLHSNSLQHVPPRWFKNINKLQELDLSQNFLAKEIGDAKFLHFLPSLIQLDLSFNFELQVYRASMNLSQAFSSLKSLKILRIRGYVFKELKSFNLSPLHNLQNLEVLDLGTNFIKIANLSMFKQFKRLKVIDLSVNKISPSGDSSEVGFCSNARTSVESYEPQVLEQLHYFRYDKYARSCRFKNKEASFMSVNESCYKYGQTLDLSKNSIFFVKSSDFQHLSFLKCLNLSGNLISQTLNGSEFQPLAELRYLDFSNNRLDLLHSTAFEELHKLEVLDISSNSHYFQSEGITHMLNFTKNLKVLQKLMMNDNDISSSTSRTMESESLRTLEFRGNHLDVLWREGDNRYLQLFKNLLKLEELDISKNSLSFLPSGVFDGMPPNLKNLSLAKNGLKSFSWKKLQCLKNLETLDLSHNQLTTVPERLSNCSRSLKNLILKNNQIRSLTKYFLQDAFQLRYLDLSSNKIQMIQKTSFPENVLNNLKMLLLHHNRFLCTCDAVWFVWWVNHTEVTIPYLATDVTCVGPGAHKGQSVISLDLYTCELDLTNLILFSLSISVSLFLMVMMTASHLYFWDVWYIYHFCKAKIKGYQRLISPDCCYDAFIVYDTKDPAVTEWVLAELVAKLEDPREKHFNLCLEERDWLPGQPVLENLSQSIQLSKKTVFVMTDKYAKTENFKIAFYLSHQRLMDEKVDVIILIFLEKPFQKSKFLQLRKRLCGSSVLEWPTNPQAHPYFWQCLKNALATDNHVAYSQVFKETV
The test can be described thus: TLR7 inhibition reporter assay (HEK-Blue SEAP). It counts as cell-based. The conditions noted are these: HEK-Blue cells overexpressing human TLR7, gardiquimod 7.5 μM, 22 hour incubation. The essentials:
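Dose-response testing from 0.05 nM to 50 μM final was done on reporter cells for 22 hours at 37° C. Secreted SEAP was then detected, and inhibition was calculated as percent reduction of the agonist-plus-DMSO signal compared with wells given a known inhibitor.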
One may read the IC50 as the point on the concentration scale where inhibition reaches its midpoint. A low value points to higher potency. For `Cc1cc2c(cc1-c1cc(C)c3ncnn3c1)[nH]c(=O)n2C1CCNCC1` [1 EA, 6-methyl-5-(8-methyl-[1,2,4]triazolo[1,5-a]pyridin-6-yl)-1-(piperidin-4-yl)-1,3-dihydro-2H-benzo[d]imidazol-2-one], the IC50 amounted to 344 nM.
`Cc1cc2c(cc1-c1cc(C)c3ncnn3c1)[nH]c(=O)n2[C@H]1CC[C@H](N)CC1` [1 EF, 1-((1r,4r)-4-aminocyclohexyl)-6-methyl-5-(8-methyl-[1,2,4]triazolo[1,5-a]pyridin-6-yl)-1,3-dihydro-2H-benzo[d]imidazol-2-one] came in with a half-maximal inhibitory concentration (IC50) of 40.7 nM.
`COc1cc(-c2cc3[nH]c(=O)n(C4CCNCC4)c3cc2C)cn2ncnc12` [1 E, 5-(8-methoxy-[1,2,4]triazolo[1,5-a]pyridin-6-yl)-6-methyl-1-(piperidin-4-yl)-1H-benzo[d]imidazol-2(3H)-one, TFA] came in with an IC50 of 366 nM. Compared with the last molecule, the IC50 is about 9-fold higher.
Consider `Cc1c(-c2cc3[nH]c(=O)n(C4CCC(N5CCCC(F)C5)CC4)c3cc2C(C)C)cn2ncnc2c1C` (stereo not drawn) [Example 273, 5-(7,8-dimethyl-[1,2,4]triazolo[1,5-a]pyridin-6-yl)-1-(4-(3-fluoropiperidin-1-yl)cyclohexyl)-6-isopropyl-1,3-dihydro-2H-benzo[d]imidazol-2-one], for which it took 9.22 nM to reach half-maximal inhibition (IC50).
In the case of `COc1cc(-c2cc3[nH]c(=O)n(C4CCC(N5CCC(OC)C5)CC4)c3cc2C(C)C)cn2ncnc12` (stereo not drawn) [Example 284, 6-isopropyl-5-(8-methoxy-[1,2,4]triazolo[1,5-a]pyridin-6-yl)-1-(4-(3-methoxypyrrolidin-1-yl)cyclohexyl)-1,3-dihydro-2H-benzo[d]imidazol-2-one], the IC50 was determined as 0.7 nM.
In turn, `Cc1c(-c2cc3[nH]c(=O)n(C4CCC(N5CCC(F)(F)CC5)CC4)c3cc2C(C)C)cn2ncnc2c1C` (single isomer, unassigned) [Example 275, 1-(4-(4,4-difluoropiperidin-1-yl)cyclohexyl)-5-(7,8-dimethyl-[1,2,4]triazolo[1,5-a]pyridin-6-yl)-6-isopropyl-1,3-dihydro-2H-benzo[d]imidazol-2-one] displayed an IC50 of 13.7 nM. This IC50 is about 20-fold higher than that of the molecule before.
In turn, `COC[C@@H]1CCN(C2CCC(n3c(=O)[nH]c4cc(-c5cc(OC)c6ncnn6c5)c(C(C)C)cc43)CC2)C1` (single isomer, unassigned) [Example 291] yielded a half-inhibitory concentration (IC50) of 1.71 nM.
With `COC[C@@H]1CCN(C2CCC(n3c(=O)[nH]c4cc(-c5cc(OC)c6ncnn6c5)c(C(C)C)cc43)CC2)C1` (single isomer, unassigned) [Example 290] the figure was 1.38 nM.
For the molecule `Cc1cc2c(cc1-c1cc(C)c3ncnn3c1)[nH]c(=O)n2[C@H]1CC[C@@H](NC2CCOCC2)CC1` [Example 30, 6-methyl-5-(8-methyl-[1,2,4]triazolo[1,5-a]pyridin-6-yl)-1-((1s,4s)-4-((tetrahydro-2H-pyran-4-yl)amino)cyclohexyl)-1,3-dihydro-2H-benzo[d]imidazol-2-one], the IC50 was determined as 8.23 nM.
With `COc1cc(-c2cc3[nH]c(=O)n(C4CCC(N5C6CCC5COC6)CC4)c3cc2C(C)C)cn2ncnc12` (single isomer, unassigned) [Example 253, 1-(4-(3-oxa-8-azabicyclo[3.2.1]octan-8-yl)cyclohexyl)-6-isopropyl-5-(8-methoxy-[1,2,4]triazolo[1,5-a]pyridin-6-yl)-1,3-dihydro-2H-benzo[d]imidazol-2-one] the figure was 4.75 nM; with `COc1cc(-c2cc3[nH]c(=O)n(C4CCC(N(C)CCC(F)(F)F)CC4)c3cc2C(C)C)cn2ncnc12` (single isomer, unassigned) [Example 248, 6-isopropyl-5-(8-methoxy-[1,2,4]triazolo[1,5-a]pyridin-6-yl)-1-(4-(methyl(3,3,3-trifluoropropyl)amino)cyclohexyl)-1,3-dihydro-2H-benzo[d]imidazol-2-one], 1.12 nM.
In the case of `COc1cc(-c2cc3[nH]c(=O)n(C4CCC(N5CCC(OC)C5)CC4)c3cc2C(C)C)cn2ncnc12` (stereo not drawn) [Example 285, 6-isopropyl-5-(8-methoxy-[1,2,4]triazolo[1,5-a]pyridin-6-yl)-1-(4-(3-methoxypyrrolidin-1-yl)cyclohexyl)-1,3-dihydro-2H-benzo[d]imidazol-2-one], the IC50 came out at 0.66 nM.
Consider `Cc1c(-c2cc3[nH]c(=O)n(C4CCC(N5CC(F)C5)CC4)c3cc2C(C)C)cn2ncnc2c1C` (stereo not drawn) [Example 280, 5-(7,8-dimethyl-[1,2,4]triazolo[1,5-a]pyridin-6-yl)-1-(4-(3-fluoroazetidin-1-yl)cyclohexyl)-6-isopropyl-1,3-dihydro-2H-benzo[d]imidazol-2-one], for which the half-maximal inhibitory concentration (IC50) is 4.91 nM.
Take `COc1c(C)c(-c2cc3[nH]c(=O)n(C4CCC(NCC5(S(C)(=O)=O)CC5)CC4)c3cc2C(C)C)cn2ncnc12` (single isomer, unassigned) [Example 259]: the IC50 was determined as 10.4 nM.
Molecule `COCCNC1CCC(n2c(=O)[nH]c3cc(-c4cn5ncnc5c(OC)c4C)c(C(C)C)cc32)CC1` (stereo not drawn) [Example 257] gave an IC50 of 6.97 nM.
The molecule `COc1cc(-c2cc3[nH]c(=O)n(C4CCC(N5CCC(S(C)(=O)=O)C5)CC4)c3cc2C(C)C)cn2ncnc12` (single isomer, unassigned) [Example 288, 6-isopropyl-5-(8-methoxy-[1,2,4]triazolo[1,5-a]pyridin-6-yl)-1-(4-(3-(methylsulfonyl)pyrrolidin-1-yl)cyclohexyl)-1,3-dihydro-2H-benzo[d]imidazol-2-one] registered an IC50 of 5.09 nM.
With `COc1c(C)c(-c2cc3[nH]c(=O)n(C4CCC(N5CC6(COC6)C5)CC4)c3cc2C(C)C)cn2ncnc12` (single isomer, unassigned) [Example 270, 1-(4-(2-oxa-6-azaspiro[3.3]heptan-6-yl)cyclohexyl)-6-isopropyl-5-(8-methoxy-7-methyl-[1,2,4]triazolo[1,5-a]pyridin-6-yl)-1,3-dihydro-2H-benzo[d]imidazol-2-one] the figure was 19.3 nM.
Regarding `Cc1cc2c(cc1-c1cc(C)c3ncnn3c1)[nH]c(=O)n2[C@H]1CC[C@H](N(C)C)CC1` [Example 23, 1-((1r,4r)-4-(dimethylamino)cyclohexyl)-6-methyl-5-(8-methyl-[1,2,4]triazolo[1,5-a]pyridin-6-yl)-1,3-dihydro-2H-benzo[d]imidazol-2-one], 37.7 nM corresponded to half-maximal inhibition (IC50).
With `COc1cc(-c2ccc3c(c2)[nH]c(=O)n3C2CCNCC2)cn2ncnc12` [1 EI, 5-(8-methoxy-[1,2,4]triazolo[1,5-a]pyridin-6-yl)-1-(piperidin-4-yl)-1,3-dihydro-2H-benzo[d]imidazol-2-one] the figure was more than 3130 nM; with `COC1CN(C2CCC(n3c(=O)[nH]c4cc(-c5cn6ncnc6c(C)c5C)c(C(C)C)cc43)CC2)C1` (single isomer, unassigned) [Example 277, 5-(7,8-dimethyl-[1,2,4]triazolo[1,5-a]pyridin-6-yl)-6-isopropyl-1-(4-(3-methoxyazetidin-1-yl)cyclohexyl)-1,3-dihydro-2H-benzo[d]imidazol-2-one], 2.39 nM; with `COc1cc(-c2cc3[nH]c(=O)n(C4CCC(N5CCC(F)(F)CC5)CC4)c3cc2C(C)C)cn2ncnc12` (single isomer, unassigned) [Example 247, 1-(4-(4,4-difluoropiperidin-1-yl)cyclohexyl)-6-isopropyl-5-(8-methoxy-[1,2,4]triazolo[1,5-a]pyridin-6-yl)-1,3-dihydro-2H-benzo[d]imidazol-2-one], 30.2 nM.
